Experimental data as given in US12084472B2 (Ardelyx, Inc., priority 2015, dated 2024).

Target: T1, human TGR5 (Homo sapiens, UniProt Q8TDU6)
T1 construct: expressed in transfected cells; host or cells: HEK293
T1 sequence (Q8TDU6 1-330): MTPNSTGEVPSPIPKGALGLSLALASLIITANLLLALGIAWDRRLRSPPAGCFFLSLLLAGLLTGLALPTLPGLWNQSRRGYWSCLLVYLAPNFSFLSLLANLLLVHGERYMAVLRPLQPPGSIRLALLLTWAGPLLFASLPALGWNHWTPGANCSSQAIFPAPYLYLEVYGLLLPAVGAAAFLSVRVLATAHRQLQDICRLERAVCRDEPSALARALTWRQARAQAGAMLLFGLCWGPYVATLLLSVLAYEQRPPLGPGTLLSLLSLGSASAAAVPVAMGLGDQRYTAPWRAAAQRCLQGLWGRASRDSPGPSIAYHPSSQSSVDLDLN
Test: Cell-based TGR5 assay (cAMP generation, HTRF)
Details: HEK293 cells stably transfected with human TGR5; cAMP by HTRF; 30 minutes at 37° C.; read-out: pEC50 Human TGR5 (converted)
Method in brief: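 First, compounds in 3-fold serial dilution were placed in HBSS with 10 mM HEPES pH 7.4 and 0.5 mM IBMX. Next, human TGR5-expressing HEK293 cells were added and incubated 30 min at 37° C. Finally, cAMP was detected by HTRF and pEC50 derived by logistic fitting.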

Structure (SMILES) | EC50
CC(=O)N(CCCC(C)c1ccc(Cl)c(CNC2(c3cnccc3-c3ccccc3OC3CC3)CC2)c1)C[C@H](O)[C@@H](O)[C@H](O)[C@H](O)CO (stereo partly drawn) [Compound I-377, N-(4-{4-chloro-3-[({1-[4-(2-cyclopropoxyphenyl)pyridin-3-yl]cyclopropyl}amino)methyl]phenyl}pentyl)-N-[(2S,3R,4R,5R)-2,3,4,5,6-pentahydroxyhexyl]acetamide] | < 100 nM
C[C@@H](CCCN)c1ccc(Cl)c(CNC2(c3cnccc3-c3ccccc3OC3CC3)CC2)c1 (single isomer, unassigned) [Compound I-250] | < 100 nM
CC(=O)NCCN(CCCSc1ccc(Cl)c(CNC2(c3cnccc3-c3ccccc3OC3CC3)CC2)c1)C(=O)[C@@H](O)[C@@H](O)[C@H](O)[C@@H](O)CO [Compound I-586, (2S,3S,4R,5S)-N-[3-({4-chloro-3-[({1-[4-(2-cyclopropoxyphenyl)pyridin-3-yl]cyclopropyl}amino)methyl]phenyl}sulfanyl)propyl]-N-(2-acetamidoethyl)-2,3,4,5,6-pentahydroxyhexanamide] | 126 to 1000 nM
CC(C)N(CCCCNC(=O)NC[C@H](O)[C@@H](O)[C@H](O)[C@H](O)CO)S(=O)(=O)c1ccc(Cl)c(COC2(c3cnccc3-c3ccccc3OC3CC3)CC2)c1 [Compound I-391, 3-[(2S,3R,4R,5R)-2,3,4,5,6-pentahydroxyhexyl]-1-[4-[N-(propan-2-yl)[4-chloro-3-([1-[4-(2-cyclopropoxyphenyl)pyridin-3-yl]cyclopropoxy]methyl)benzene]sulfonamido]butyl]urea] | < 100 nM
Cc1ccc(SCCCCC(=O)N(C)C[C@H](O)[C@@H](O)[C@H](O)[C@H](O)CO)nc1COC1(c2cnccc2-c2ccccc2OC2CC2)CC1 [Compound I-658, 5-{[6-({1-[4-(2-cyclopropoxyphenyl)pyridin-3-yl]cyclopropoxy}methyl)-5-methylpyridin-2-yl]sulfanyl}-N-methyl-N-[(2S,3R,4R,5R)-2,3,4,5,6-pentahydroxyhexyl]pentanamide] | 1260 to 10000 nM
CCOC(=O)NCCN(CCCSc1ccc(Cl)c(COC2(c3cnccc3-c3ccccc3OC3CC3)CC2)c1)C(=O)[C@@H](O)[C@@H](O)[C@H](O)[C@@H](O)CO [Compound I-597, ethyl N-{2-[(2S,3S,4R,5S)-N-(3-{[4-chloro-3-({1-[4-(2-cyclopropoxyphenyl)pyridin-3-yl]cyclopropoxy}methyl)phenyl]sulfanyl}propyl)-2,3,4,5,6-pentahydroxyhexanamido]ethyl}carbamate] | 126 to 1000 nM
Cc1ccc(SCCCN(CCOCCO)C(=O)[C@@H](O)[C@@H](O)[C@H](O)[C@@H](O)CO)cc1CNC1(c2cnccc2-c2ccccc2OC2CC2)CC1 [Compound I-545, (2S,3S,4R,5S)-N-[3-({3-[({1-[4-(2-cyclopropoxyphenyl)pyridin-3-yl]cyclopropyl}amino)methyl]-4-methylphenyl}sulfanyl)propyl]-2,3,4,5,6-pentahydroxy-N-[2-(2-hydroxyethoxy)ethyl]hexanamide] | 126 to 1000 nM
CN(CCCCNC(=O)N[C@@H](CO)[C@@H](O)[C@H](O)[C@H](O)CO)S(=O)(=O)c1ccc(C(F)(F)F)c(CNC2(c3cnccc3-c3ccccc3OC3CC3)CC2)c1 [Compound I-470, 1-(4-{N-methyl3-[({1-[4-(2-cyclopropoxyphenyl)pyridin-3-yl]cyclopropyl}amino)methyl]-4-(trifluoromethyl)benzenesulfonamido}butyl)-3-[(2S,3R,4S,5R)-1,3,4,5,6-pentahydroxyhexan-2-yl]urea] | 126 to 1000 nM
Cc1cc(CNC2(c3cnccc3-c3ccccc3OC3CC3)CC2)c(Cl)cn1 [Compound I-34, N-[(5-chloro-2-methylpyridin-4-yl)methyl]-1-[4-(2-cyclopropoxyphenyl)pyridin-3-yl]cyclopropan-1-amine] | < 100 nM
O=C(NC[C@H](O)[C@@H](O)[C@H](O)[C@H](O)CO)N[C@H]1CC[C@H](NS(=O)(=O)c2ccc(Cl)c(COC3(c4cnccc4-c4ccccc4OC4CC4)CC3)c2)CC1 [Compound I-418, 3-[(2S,3R,4R,5R)-2,3,4,5,6-pentahydroxyhexyl]-1-[(1r,4r)-4-[4-chloro-3-({l-[4-(2-cyclopropoxyphenyl)pyridin-3-yl]cyclopropoxy}methyl)benzenesulfonamido]cyclohexyl]urea] | < 100 nM
CS(=O)(=O)NCCN(CCCCSc1ccc(Cl)c(CNC2(c3cnccc3-c3ccccc3OC3CC3)CC2)c1)C(=O)[C@@H](O)[C@@H](O)[C@H](O)[C@@H](O)CO [Compound I-571, (2S,3S,4R,5S)-N-[4-({4-chloro-3-[({1-[4-(2-cyclopropoxyphenyl)pyridin-3-yl]cyclopropyl}amino)methyl]phenyl}sulfanyl)butyl]-2,3,4,5,6-pentahydroxy-N-(2-methanesulfonamidoethyl) hexanamide] | < 100 nM
O=C(CCCCc1cc(Cl)c(COC2(c3cnccc3-c3ccccc3OC3CC3)CC2)cc1Cl)NC[C@@H]1O[C@H](C(=O)O)[C@@H](O)[C@H](O)[C@H]1O [Compound I-93, (2S,3S,4R,5R,6S)-6-((5-(2,5-dichloro-4-((1-(4-(2-cyclopropoxyphenyl)pyridin-3-yl)cyclopropoxy)methyl)phenyl)pentanamido)methyl)-3,4,5-trihydroxytetrahydro-2H-pyran-2-carboxylic acid] | < 100 nM
Cc1ccc(SCCCN(CCCS(C)(=O)=O)C(=O)[C@@H](O)[C@@H](O)[C@H](O)[C@@H](O)CO)cc1COC1(c2cnccc2-c2ccccc2OC2CC2)CC1 [Compound I-537, (2S,3S,4R,5S)-N-(3-{[3-({1-[4-(2-cyclopropoxyphenyl)pyridin-3-yl]cyclopropoxy}methyl)-4-methylphenyl]sulfanyl}propyl)-2,3,4,5,6-pentahydroxy-N-(3-methanesulfonylpropyl) hexanamide] | 126 to 1000 nM
CC(=O)NCCN(CCCSc1ccc(Cl)c(COC2(c3cnccc3-c3ccccc3OC3CC3)CC2)c1)C(=O)[C@@H](O)[C@@H](O)[C@H](O)[C@@H](O)CO [Compound I-595, (2S,3S,4R,5S)-N-(3-{[4-chloro-3-({1-[4-(2-cyclopropoxyphenyl)pyridin-3-yl]cyclopropoxy}methyl)phenyl]sulfanyl}propyl)-N-(2-acetamidoethyl)-2,3,4,5,6-pentahydroxyhexanamide] | 126 to 1000 nM

More lines, now with the values ahead:

EC50 | Structure (SMILES)
< 100 nM | Cc1cc(COC2(c3cnccc3-c3ccccc3OC3CC3)CC2)c(Cl)cc1CCCCNC(=O)[C@@H](O)[C@@H](O)[C@H](O)[C@@H](O)CN1CCOCC1 (stereo in doubt) [Compound I-176, (2S,3S,4R,5S)-N-{4-[5-chloro-4-({1-[4-(2-cyclopropoxyphenyl)pyridin-3-yl]cyclopropoxy}methyl)-2-methylphenyl]butyl}-2,3,4,5-tetrahydroxy-6-(morpholin-4-yl)hexanamide]
< 100 nM | CC(C)N(CCCCNC(=O)NC[C@H](O)[C@@H](O)[C@H](O)[C@H](O)CO)S(=O)(=O)c1cc(COC2(c3cnccc3-c3ccccc3OC3CC3)CC2)c(Cl)cc1F [Compound I-764, 4-chloro-5-((1-(4-(2-cyclopropoxyphenyl)pyridin-3-yl)cyclopropoxy)methyl)-2-fluoro-N-isopropyl-N-(4-(3-((2S,3R,4R,5R)-2,3,4,5,6-pentahydroxyhexyl)ureido)butyl) benzenesulfonamide]
< 100 nM | O=C([C@@H](O)[C@@H](O)[C@H](O)[C@@H](O)CO)N(CCO)CCCCc1cc(Cl)c(COC2(c3cnccc3-c3ccccc3OC3CC3)CC2)cc1Cl [Compound I-213, (2S,3S,4R,5S)-N-{4-[2,5-dichloro-4-({1-[4-(2-cyclopropoxyphenyl)pyridin-3-yl]cyclopropoxy}methyl)phenyl]butyl}-2,3,4,5,6-pentahydroxy-N-(2-hydroxyethyl)hexanamide]
126 to 1000 nM | O=C(O)CCCNC(=O)N(CCCCc1cc(Cl)c(COC2(c3cnccc3-c3ccccc3OC3CC3)CC2)cc1Cl)C[C@H](O)[C@@H](O)[C@H](O)[C@H](O)CO [Compound I-199, 4-[({4-[2,5-dichloro-4-({1-[4-(2-cyclopropoxyphenyl)pyridin-3-yl]cyclopropoxy}methyl)phenyl]butyl}[(2S,3R,4R,5R)-2,3,4,5,6-pentahydroxyhexyl]carbamoyl)amino]butanoic acid]
< 100 nM | CNC(=O)N(CCCCc1cc(Cl)c(COC2(c3cnccc3-c3ccccc3OC3CC3)CC2)cc1Cl)C[C@H](O)[C@@H](O)[C@H](O)[C@H](O)CO [Compound I-79]
< 100 nM | CC(CCCCNC(=O)[C@@H](O)[C@@H](O)[C@H](O)[C@@H](O)CO)c1ccc(Cl)c(CNC2(c3cnccc3-c3ccccc3OC3CC3)CC2)c1 (stereo partly drawn) [Compound I-279, (2S,3S,4R,5S)-N-(5-{4-chloro-3-[({1-[4-(2-cyclopropoxyphenyl)pyridin-3-yl]cyclopropyl}amino)methyl]phenyl}hexyl)-2,3,4,5,6-pentahydroxyhexanamide]
< 100 nM | C[C@@H](CCCCNC(=O)NC[C@H](O)[C@@H](O)[C@H](O)[C@H](O)CO)c1ccc(Cl)c(COC2(c3cnccc3-c3ccccc3OC3CC3)CC2)c1 (single isomer, unassigned) [Compound I-274]
< 100 nM | Cc1cc(COC2(c3cnccc3-c3ccccc3OC3CC3)CC2)c(Cl)cc1CCCCNC(=O)N[C@@H](C(=O)O)[C@@H](O)[C@H](O)[C@H](O)CO [Compound I-106, (2R,3R,4S,5R)-2-[({4-[5-chloro-4-({1-[4-(2-cyclopropoxyphenyl)pyridin-3-yl]cyclopropoxy}methyl)-2-methylphenyl]butyl}carbamoyl)amino]-3,4,5,6-tetrahydroxyhexanoic acid]
